In paper PMC7397155, “Comparison of Chemotherapeutic Activities of Rhodamine-Based GUMBOS and NanoGUMBOS” (Molecules, 2020):
One block for each molecule: values may come before it.

How the values were obtained:
[1] = Octanol buffer partition coefficient; type: physicochemical; conditions: 1-octanol / pH 7.4 phosphate-citric acid buffer, 48 h stirring
Description: Into a 20 mL vial, 1-Octanol is mixed with a pH 7.4 phosphate-citric acid buffer and stirred overnight. The two layers were separated and then a calibration curve was generated for each compound in 1-octanol using various concentrations. The phosphate-citric acid buffer was then added to one of the concentrations (Ci) and this mixture was stirred for 48 h. Subsequently, absorbance in the octanol layer was measured and the concentration (Co) calculated using the calibration curves. Later, the equation Ci − C0 = Cw was used to calculate the aqueous concentration (Cw). The octanol–water partition coefficient was then calculated using the equation Kow = […]/Cw.

Hs578Bst normal cells = assay: MTT cell viability assay, Hs578Bst normal breast cells; type: cell-based, human; conditions: for IC50: RB and R110 GUMBOS and parent dyes, normal breast cells, 48 h incubation, MTT
MCF7 cancer cells = assay: MTT cell viability assay, MCF7 breast cancer cells; design: species or system human; conditions: 48 h incubation
Description: (§1) Hormone-independent breast adenocarcinoma (MDA-MB-231), hormone-dependent breast adenocarcinoma (MCF7), human pancreatic carcinoma (Mia-Paca), and normal human fibroblast cell lines were purchased from American […] Culture Collection (ATCC, Manassas, VA, USA). Cell lines were cultured to 90% confluence using ATTC guidelines for cell culture prior to experimentation.
(§2) A 96 well plate was seeded with 5000 cells/well and incubated for 24 h to allow attachment. Serial dilution from 100 µM to 0 µM was performed for each compound. These compounds were then incubated into the cells for 48 h, followed by MTT assay to determine cell viability. Firstly, 15 µL of the MTT dye solution was incubated in the cells for 3 h. The MTT dye reacts with NADPH present in live cells to form an insoluble purple formazan product. Subsequently, 100 µL of a stop solution was added to solubilize this product and halt the enzymatic reaction between NADPH and MTT. Cells were then incubated with stop solution for 1 h. The absorbance of the formazan was then measured at 570 nm using a microplate spectrophotometer. Cell viability is reported as the ratio between experimental groups and a control normalized to 100%. All measurements were performed in triplicate measurements to obtain standard error, and the reported cell viability is the average of these measurements. The IC50 was calculated using the formula:
(§3) ((0.5−(f(a))×(b−a)+(f(b)−f(a))×a))/(f(b)−f(a)) where a is the concentration where the cell viability is above 50%, b is the concentration where the cell viability is below 50%, and f(a) and f(b) are respectively the cell viability percentages *0.01 at concentration a and b respectively.

MDA-MB-231 cancer cells = assay: MTT cell viability assay, MDA-MB-231 breast cancer cells; type: cell-based, human; conditions: 48 h incubation
Description: as §1
as §2, with “Serial dilution from 100 µM to 0 µM was performed for each compound.” left out
as §3

MiaPaca cancer cells = assay: MTT cell viability assay, MiaPaca pancreatic cancer cells; design: species or system human; conditions: 48 h incubation
Description: as §1, §2, §3

Water solubility study = type: physicochemical; conditions: water solubility at physiological pH
Description: Approximately fifty milliliters of water were added to three milligrams of GUMBOS. Absorbance measurements were then acquired over time until the absorbance reached a plateau. A calibration curve for an aqueous solution of GUMBOS was then generated at a soluble concentration, and the slope of the curve was used to calculate the solubility concentration. The solubility constant (Ksp) was then calculated using this concentration.

[2] = Zeta potential of nanoGUMBOS; type: physicochemical; conditions: nanoGUMBOS at physiological pH (7.4)
Description: Following examination of the hydrophobicity of these GUMBOS, nanoGUMBOS were synthesized using a simple reprecipitaiton method as described in the experimental section. TEM images in Figure 2 are a display of spherical nanoparticles with diameters of ~100 nm for both R123 and SNAFR.

[3] = Homo sapiens, MDA-MB-231, 48 h, RB and R110 GUMBOS and parent dyes
[4] = RB and R110 GUMBOS and parent dyes
[5] = R123- and SNAFR-5-based nanoGUMBOS and parent dyes

SMILES: COC(=O)c1ccccc1-c1c2ccc(=N)cc-2oc2cc(N)ccc12 [[R123][Cl], rhodamine 123, reference compound]
Log Kow [1]: 0.25
Toxicity towards Hs578Bst normal cells (Hs578Bst normal cells; result in words, Figure 6): slight toxicity towards normal cells
IC50 (MCF7 cancer cells; Homo sapiens, MCF7, R123- and SNAFR-5-based nanoGUMBOS and parent dyes): > 100 µM
IC50 (MDA-MB-231 cancer cells; Homo sapiens, MDA-MB-231, R123- and SNAFR-5-based nanoGUMBOS and parent dyes): 24.3 ± 2.2 µM
IC50 (MiaPaca cancer cells; Homo sapiens, MIA PaCa-2, R123- and SNAFR-5-based nanoGUMBOS and parent dyes): 3.1 ± 1.1 µM

Log Kow [1]: 0.22
IC50 (MDA-MB-231 cancer cells; [3]): 781 µM
IC50 (MDA-MB-231 cancer cells; [4]): 791.2 ± 2.7 µM
solubility thermodynamic (Water solubility study): > 700 µM
SMILES: N=c1ccc2c(-c3ccccc3C(=O)O)c3ccc(N)cc3oc-2c1 [[R110][Cl], rhodamine 110 chloride, reference compound]
IC50 (Hs578Bst normal cells; Homo sapiens, Hs578Bst): 836.1 ± 5.3 µM

SMILES: CCN(CC)c1ccc2c(-c3ccccc3C(=O)O)c3ccc(=[N+](CC)CC)cc-3oc2c1.c1ccc([B-](c2ccccc2)(c2ccccc2)c2ccccc2)cc1 [[RB][TPB]]
Log Kow [1]: 1.6
IC50 (Hs578Bst normal cells): 533.7 ± 3.3 µM
IC50 (MDA-MB-231 cancer cells; [4]): 77.5 ± 5.7 µM

SMILES: CCN(CC)c1ccc2c(-c3ccccc3C(=O)O)c3ccc(=[N+](CC)CC)cc-3oc2c1.O=S(=O)([N-]S(=O)(=O)C(F)(F)C(F)(F)F)C(F)(F)C(F)(F)F [[RB][BETI]]
Log Kow [1]: 1.25
IC50 (Hs578Bst normal cells): 540 ± 6.2 µM
IC50 (MDA-MB-231 cancer cells; [4]): 89.5 ± 3.4 µM

SMILES: CCN(CC)c1ccc2c(-c3ccccc3C(=O)O)c3ccc(=[N+](CC)CC)cc-3oc2c1 [[RB][Cl], Rhodamine B chloride, reference compound]
Log Kow [1]: 1.1
IC50 (Hs578Bst normal cells; Homo sapiens, Hs578Bst): 500 ± 5.2 µM
IC50 (MDA-MB-231 cancer cells; [3]): 291 ± 1.2 µM

SMILES: COC(=O)c1ccccc1-c1c2ccc(N)cc2[o+]c2cc(N)ccc12.O=S(=O)([N-]S(=O)(=O)C(F)(F)C(F)(F)F)C(F)(F)C(F)(F)F [[R123][BETI]]
Log Kow [1]: 1.1
IC50 (MCF7 cancer cells; [5]): > 100 µM
Zeta Potential [2]: −16.8 ± 1.1 mV
IC50 (MDA-MB-231 cancer cells; [5]): 17.4 ± 3.7 µM
IC50 (MiaPaca cancer cells; [5]): 1.6 ± 0.7 µM

SMILES: COC(=O)c1ccccc1-c1c2ccc(=[NH2+])cc-2oc2cc(N)ccc12.c1ccc([B-](c2ccccc2)(c2ccccc2)c2ccccc2)cc1 [[R123][TPB]]
Log Kow [1]: 0.8
IC50 (MCF7 cancer cells; [5]): > 100 µM
Zeta Potential [2]: −16.5 ± 1.4 mV
IC50 (MDA-MB-231 cancer cells; [5]): 20.6 ± 3.5 µM
IC50 (MiaPaca cancer cells; [5]): 2.5 ± 0.9 µM
